Experiments:
[1] = molecular target: T1, Mitogen-activated protein kinase kinase kinase 12 (Homo sapiens, UniProt Q12852); assay: Inhibition of doxycycline inducible human DLK transfected in HEK293 cells assessed as JNK phosphorylation after […] by Hoechst-33342 staining-based assay; format: cell-based
T1 sequence (Q12852 whole entry): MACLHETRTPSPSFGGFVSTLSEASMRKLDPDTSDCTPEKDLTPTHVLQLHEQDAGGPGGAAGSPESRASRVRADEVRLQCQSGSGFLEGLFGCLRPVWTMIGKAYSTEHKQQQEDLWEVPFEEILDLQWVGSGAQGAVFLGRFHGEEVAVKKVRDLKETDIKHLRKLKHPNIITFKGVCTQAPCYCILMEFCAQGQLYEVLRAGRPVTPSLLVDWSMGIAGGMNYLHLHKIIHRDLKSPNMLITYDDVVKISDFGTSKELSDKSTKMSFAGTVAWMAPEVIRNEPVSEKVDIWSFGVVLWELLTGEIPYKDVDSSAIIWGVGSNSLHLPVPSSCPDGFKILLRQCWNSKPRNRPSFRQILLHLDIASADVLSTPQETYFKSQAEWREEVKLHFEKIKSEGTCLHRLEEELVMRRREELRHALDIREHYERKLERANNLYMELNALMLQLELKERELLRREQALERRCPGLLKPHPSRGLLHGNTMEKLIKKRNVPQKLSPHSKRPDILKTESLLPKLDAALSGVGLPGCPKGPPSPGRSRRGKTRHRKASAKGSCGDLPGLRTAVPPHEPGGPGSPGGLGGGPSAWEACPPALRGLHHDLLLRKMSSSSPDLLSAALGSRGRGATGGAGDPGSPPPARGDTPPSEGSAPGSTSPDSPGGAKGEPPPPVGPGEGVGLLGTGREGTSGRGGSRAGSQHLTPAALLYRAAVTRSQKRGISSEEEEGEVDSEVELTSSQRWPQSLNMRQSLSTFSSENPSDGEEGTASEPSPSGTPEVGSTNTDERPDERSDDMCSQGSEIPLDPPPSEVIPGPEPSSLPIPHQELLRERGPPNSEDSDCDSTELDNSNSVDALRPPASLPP

[2] = test system: MDR1 (P-gp), human; assay: Efflux ratio of permeability from basolateral to apical side over apical to basolateral side in MDCK cells harboring human MDR1; format: ADME, cell-based, Canis lupus familiaris; conditions: dog
[3] = test system: MDR1 (P-gp), human; assay: Permeability from apical side to basolateral side in MDCK1 cells harboring human MDR1; format: ADME, cell-based, Canis lupus familiaris; conditions: dog, MDCK-MDR1; read-out: permeability
[4] = molecular target: T1, Mitogen-activated protein kinase kinase kinase 12; assay: Binding affinity to N-terminally GST-tagged wild type human DLK (1 to 520 residues) expressed in sf21 insect cells using N-terminally His-tagged MKK4 K131M as substrate after 60 mins in presence of ATP by TR-FRET assay

| SMILES | IC50 [1] | efflux ratio [2] | Papp A→B [3] | Ki [4] |
| --- | --- | --- | --- | --- |
| CC(C)n1nc(-c2cnc(N)c(Cl)c2)cc1C1CCN(C2COC2)CC1 | 1700 nM | – | – | – |
| CC(C)n1nc(-c2cnc3[nH]cc(F)c3c2)cc1C1CCN(C2COC2)CC1 | 2800 nM | – | – | – |
| CC(C)n1nc(-c2cnc(N)c(C(F)(F)F)c2)cc1[C@H]1[C@@H]2CN(CC(F)F)C[C@@H]21 | 611 nM | 0.3 | 7.9 ×10⁻⁶ cm/s | – |
| Nc1ncc(-c2cc([C@H]3[C@@H]4CN(C5COC5)C[C@@H]43)n(CC3CC3)n2)cc1OC(F)(F)F | 304 nM | – | – | 3 nM |
| COc1cc(-c2cc([C@H]3[C@@H]4CN(C5COC5)C[C@@H]43)n(C(C)C)n2)cnc1N | 873 nM | – | – | 7 nM |
| CC(C)n1nc(-c2cnc3[nH]cc(Cl)c3c2)cc1C1CCN(C2COC2)CC1 | 574 nM | – | – | – |
| COCCN1C[C@@H]2[C@H](C1)[C@H]2c1cc(-c2cnc(N)c(C(F)(F)F)c2)nn1C(C)C | 265 nM | – | – | 9 nM |
| Cc1cc(-c2cc(C3CCN(C4COC4)CC3)n(C(C)C)n2)cnc1N | – | – | – | > 1600 nM |
| Cc1c[nH]c2ncc(-c3cc(C4CCN(C5COC5)CC4)n(C(C)C)n3)cc12 | 303 nM | – | – | 4 nM |
| CC(C)(O)Cn1nc(-c2cnc(N)c(C(F)(F)F)c2)cc1[C@H]1[C@@H]2CN(C3COC3)C[C@@H]21 | 829 nM | – | – | 23 nM |
| Nc1ncc(-c2cc([C@H]3[C@@H]4CN(C5COC5)C[C@@H]43)n(CC3CCCC3)n2)cc1C(F)(F)F | 202 nM | – | – | 9 nM |
| CC(C)n1nc(-c2cnc(N)c(C(F)(F)F)c2)cc1C1CCN(C2COC2)CC1 | 1900 nM | – | – | – |
| CCn1nc(-c2cnc(N)c(C(F)(F)F)c2)cc1[C@H]1[C@@H]2CN(C3COC3)C[C@@H]21 | 406 nM | – | – | 3 nM |
| CC(C)n1nc(-c2cnc(N)c(C(F)(F)F)c2)cc1[C@H]1[C@@H]2CN(CC3COC3)C[C@@H]21 | 274 nM | – | – | 5 nM |
| CC(C)n1nc(-c2cnc(N)c(OC(F)F)c2)cc1[C@H]1[C@@H]2CN(C3COC3)C[C@@H]21 | 328 nM | – | – | – |
| CC(C)Cn1nc(-c2cnc(N)c(C(F)(F)F)c2)cc1[C@H]1[C@@H]2CN(C3COC3)C[C@@H]21 | 99 nM | – | – | 3 nM |
| CC(C)n1nc(-c2cnc(N)c(C(F)F)c2)cc1[C@H]1[C@@H]2CN(C3COC3)C[C@@H]21 | 1200 nM | – | – | – |
| Nc1ncc(-c2cc([C@H]3[C@@H]4CN(C5COC5)C[C@@H]43)n(CC(F)(F)F)n2)cc1C(F)(F)F | 180 nM | – | – | 16 nM |
| CC(C)n1nc(-c2cnc3[nH]cc(C(F)(F)F)c3c2)cc1C1CCN(C2COC2)CC1 | 485 nM | – | – | – |
| CC(=O)N1C[C@@H]2[C@H](C1)[C@H]2c1cc(-c2cnc(N)c(C(F)(F)F)c2)nn1C(C)C | 302 nM | – | – | 6 nM |
| Cn1nc(-c2cnc(N)c(C(F)(F)F)c2)cc1[C@H]1[C@@H]2CN(C3COC3)C[C@@H]21 | 1800 nM | – | – | 82 nM |
| Cn1nc(-c2cnc(N)c(OC(F)(F)F)c2)cc1[C@H]1[C@@H]2CN(C3COC3)C[C@@H]21 | 1300 nM | – | – | 67 nM |
| CC(O)CN1C[C@@H]2[C@H](C1)[C@H]2c1cc(-c2cnc(N)c(C(F)(F)F)c2)nn1C(C)C (some centres undefined) | 208 nM | – | – | 4 nM |
